Laboratory results published in patent publication US20230022157A1 (Achillion Pharmaceuticals, Inc., priority 2018, published 2023).

Each compound was assayed against T1, Human Factor D (Homo sapiens, UniProt P00746) (assay: Human Factor D Assay). Details: Human Factor D 80 nM, substrate Z-L-Lys-SBzl; Table 2; read-out: IC50 (Stars).
T1 construct: purified from human serum; purchased Complement Technology, Inc; host or cells: human serum (natural protein, not recombinant)
T1 sequence (P00746 26-253): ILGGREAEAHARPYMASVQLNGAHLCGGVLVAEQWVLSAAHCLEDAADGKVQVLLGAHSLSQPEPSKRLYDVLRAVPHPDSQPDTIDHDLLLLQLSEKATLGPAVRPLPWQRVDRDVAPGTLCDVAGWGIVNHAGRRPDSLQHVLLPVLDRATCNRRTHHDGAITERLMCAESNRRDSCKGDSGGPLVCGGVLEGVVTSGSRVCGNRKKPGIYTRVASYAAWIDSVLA
Format: biochemical
Outline: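 Serum-purified human factor D (80 nM final) preincubated 5 min at room temperature with test compound in 50 mM Tris, 1M NaCl, pH 7.5. Z-L-Lys-SBzl substrate and DTNB then added, each at 100 μM final. IC50 from nonlinear regression of reaction rate against compound concentration.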
`CC(=O)c1nn(CC(=O)N2[C@H](C(=O)Nc3cc(F)cc(Br)n3)C[C@@]3(C)C[C@@H]23)c2c(C)cc(-c3cnc(CO)nc3)cc12` [Compound 123, (1R,3S,5R)-2-(2-(3-acetyl-5-(2-(hydroxymethyl)pyrimidin-5-yl)-7-methyl-1H-indazol-1-yl)acetyl)-N-(6-bromo-4-fluoropyridin-2-yl)-5-methyl-2-azabicyclo[3.1.0]hexane-3-carboxamide] showed an IC50 of less than 1 µM. `CC(=O)c1nn(CC(=O)N2[C@H](C(=O)Nc3cc(F)cc(Br)n3)C[C@@]3(C)C[C@@H]23)c2c(C)cc(-c3cnc(C(C)O)nc3)cc12` (stereo partly drawn) [Compound 124, (1R,3S,5R)-2-(2-(3-acetyl-5-(2-(1-hydroxyethyl)pyrimidin-5-yl)-7-methyl-1H-indazol-1-yl)acetyl)-N-(6-bromo-4-fluoropyridin-2-yl)-5-methyl-2-azabicyclo[3.1.0]hexane-3-carboxamide] showed an IC50 of less than 1 µM. `CC(=O)c1nn(CC(=O)N2[C@H](C(=O)Nc3ccc(F)c(Br)n3)C[C@@]3(C)C[C@@H]23)c2c(C)cc(-c3cnc(C(C)O)nc3)cc12` (stereo partly drawn) [Compound 125, (1R,3S,5R)-2-(2-(3-acetyl-5-(2-(1-hydroxyethyl)pyrimidin-5-yl)-7-methyl-11H-indazol-1-yl)acetyl)-N-(6-bromo-5-fluoropyridin-2-yl)-5-methyl-2-azabicyclo[3.1.0]hexane-3-carboxamide] was tested, and the IC50 was less than 1 µM. `CC(=O)c1nn(CC(=O)N2[C@H](C(=O)Nc3nc(Br)ccc3C)C[C@@]3(C)C[C@@H]23)c2ccc(-c3cnc(C(C)O)nc3)cc12` (stereo partly drawn) [Compound 126, (1R,3S,5R)-2-(2-(3-acetyl-5-(2-(1-hydroxyethyl)pyrimidin-5-yl)-1H-indazol-1-yl)acetyl)-N-(6-bromo-3-methylpyridin-2-yl)-5-methyl-2-azabicyclo[3.1.0]hexane-3-carboxamide] was tested, and the IC50 was less than 1 µM. With `CC(=O)c1nn(CC(=O)N2[C@H](C(=O)Nc3nc(Br)ccc3C)C[C@@]3(C)C[C@@H]23)c2c(C)cc(-c3cnc(CO)cn3)cc12` [Compound 127, (1R,3S,5R)-2-(2-(3-acetyl-5-(5-(hydroxymethyl)pyrazin-2-yl)-7-methyl-1H-indazol-1-yl)acetyl)-N-(6-bromo-3-methylpyridin-2-yl)-5-methyl-2-azabicyclo[3.1.0]hexane-3-carboxamide] the IC50 was less than 1 µM. With `CC(=O)c1nn(CC(=O)N2[C@H]3CC[C@H](C3)[C@H]2C(=O)Nc2nc(C(F)(F)F)ccc2C)c2c(C)cc(-c3cncc(C4(C(=O)O)CC4)c3)cc12` [Compound 128, 1-(5-(3-Acetyl-7-methyl-1-(2-((1S,3S,4R)-3-((3-methyl-6-(trifluoromethyl)pyridin-2-yl)carbamoyl)-2-azabicyclo[2.2.1]heptan-2-yl)-2-oxoethyl)-1H-indazol-5-yl)pyridin-3-yl)cyclopropane-1-carboxylic acid] the IC50 was less than 1 µM. In the case of `CC(=O)c1nn(CC(=O)N2[C@H](C(=O)Nc3nc(Br)ccc3C)C[C@@]3(C)C[C@@H]23)c2c(C)cc(-c3cncc(S(C)(=O)=O)c3)cc12` [Compound 129, (1R,3S,5R)-2-(2-(3-Acetyl-7-methyl-5-(5-(methylsulfonyl)pyridin-3-yl)-1H-indazol-1-yl)acetyl)-N-(6-bromo-3-methylpyridin-2-yl)-5-methyl-2-azabicyclo[3.1.0]hexane-3-carboxamide], the IC50 is reported as less than 1 µM. In the case of `CC(=O)c1nn(CC(=O)N2[C@H](C(=O)Nc3nc(C(C)(F)F)ccc3C)C[C@@]3(C)C[C@@H]23)c2c(C)cc(-c3cnc(C)nc3)cc12` [Compound 130, (1R,3S,5R)-2-(2-(3-Acetyl-7-methyl-5-(2-methylpyrimidin-5-yl)-1H-indazol-1-yl)acetyl)-N-(6-(1,1-difluoroethyl)-3-methylpyridin-2-yl)-5-methyl-2-azabicyclo[3.1.0]hexane-3-carboxamide], the IC50 is reported as less than 1 µM. For `CC(=O)c1nn(CC(=O)N2[C@H](C(=O)Nc3nc(Br)c(F)cc3C)C[C@@]3(C)C[C@@H]23)c2c(C)cc(-c3cnc(CO)cn3)cc12` [Compound 131, (1R,3S,5R)-2-(2-(3-acetyl-5-(5-(hydroxymethyl)pyrazin-2-yl)-7-methyl-1H-indazol-1-yl)acetyl)-N-(6-bromo-5-fluoro-3-methylpyridin-2-yl)-5-methyl-2-azabicyclo[3.1.0]hexane-3-carboxamide], the IC50 was less than 1 µM. Compound `CC(=O)c1nn(CC(=O)N2[C@H](C(=O)Nc3nc(Br)ccc3C)C[C@@]3(C)C[C@@H]23)c2c(C)cc(-c3ccnc(CO)c3)cc12` [Compound 132, (1R,3S,5R)-2-(2-(3-acetyl-5-(2-(hydroxymethyl)pyridin-4-yl)-7-methyl-1H-indazol-1-yl)acetyl)-N-(6-bromo-3-methylpyridin-2-yl)-5-methyl-2-azabicyclo[3.1.0]hexane-3-carboxamide] has an IC50 of less than 1 µM. In the case of `CC(=O)c1nn(CC(=O)N2[C@H](C(=O)N[C@H](C)CC3CC3)C[C@@]3(C)C[C@@H]23)c2c(C)cc(-c3cnc(C)nc3)cc12` [Compound 133, (1R,3S,5R)-2-{2-[3-acetyl-7-methyl-5-(2-methylpyrimidin-5-yl)indazol-1-yl]acetyl}-N-[(2R)-1-cyclopropylpropan-2-yl]-5-methyl-2-azabicyclo[3.1.0]hexane-3-carboxamide], the IC50 is reported as less than 1 µM. `CC(=O)c1nn(CC(=O)N2[C@H](C(=O)NC(C)CC3CCC3)C[C@@]3(C)C[C@@H]23)c2c(C)cc(-c3cnc(C)nc3)cc12` (stereo partly shown) [Compound 134] showed an IC50 of less than 1 µM. Compound `CC(=O)c1nn(CC(=O)N2[C@H](C(=O)NC3CCCC4(C3)OCCO4)C[C@@]3(C)C[C@@H]23)c2c(C)cc(-c3cnc(C)nc3)cc12` (stereo partly drawn) [Compound 137, (1R,3S,5R)-2-{2-[3-acetyl-7-methyl-5-(2-methylpyrimidin-5-yl)indazol-1-yl]acetyl}-N-{1,4-dioxaspiro[4.5]decan-7-yl}-5-methyl-2-azabicyclo[3.1.0]hexane-3-carboxamide] has an IC50 of less than 1 µM. For `CC(=O)c1nn(CC(=O)N2[C@H](C(=O)NC3CCC4(CC3)OCCO4)C[C@@]3(C)C[C@@H]23)c2c(C)cc(-c3cnc(C)nc3)cc12` [Compound 138, (1R,3S,5R)-2-{2-[3-acetyl-7-methyl-5-(2-methylpyrimidin-5-yl)indazol-1-yl]acetyl}-N-{1,4-dioxaspiro[4.5]decan-8-yl}-5-methyl-2-azabicyclo[3.1.0]hexane-3-carboxamide], the IC50 was greater than 10 µM. Compound `CC(=O)c1nn(CCN2C[C@H](F)C[C@H]2C(=O)Nc2cccc(Br)n2)c2ccc(-c3cnc(C)nc3)cc12` [Compound 139, (2S,4R)-1-(2-(3-acetyl-5-(2-methylpyrimidin-5-yl)-1H-indazol-1-yl)ethyl)-N-(6-bromopyridin-2-yl)-4-fluoropyrrolidine-2-carboxamide] has an IC50 greater than 10 µM. Work on `Cc1ncc(-c2cc3c(C(N)=O)nn(CC(=O)N4[C@H](C(=O)Nc5cc(F)cc(Br)n5)C[C@@]5(C)C[C@@H]45)c3c(C)n2)cn1` [Compound 140, 1-(2-((1R,3S,5R)-3-((6-bromo-4-fluoropyridin-2-yl)carbamoyl)-5-methyl-2-azabicyclo[3.1.0]hexan-2-yl)-2-oxoethyl)-7-methyl-5-(2-methylpyrimidin-5-yl)-1H-pyrazolo[3,4-c]pyridine-3-carboxamide] yielded an IC50 of less than 1 µM. With `Cc1ncc(-c2ccc3c(c2)c(C2OCCO2)nn3CC(=O)N2[C@H](C(=O)Nc3nc(Br)ccc3C)C[C@@]3(C)C[C@@H]23)cn1` [Compound 143, (1R,3S,5R)-2-(2-(3-(1,3-dioxolan-2-yl)-5-(2-methylpyrimidin-5-yl)-1H-indazol-1-yl)acetyl)-N-(6-bromo-3-methylpyridin-2-yl)-5-methyl-2-azabicyclo[3.1.0]hexane-3-carboxamide] the IC50 was less than 1 µM. Work on `CC(=O)c1cn(CC(=O)N2[C@H](C(=O)Nc3nc(Br)c(F)cc3C)C[C@@]3(C)C[C@@H]23)c2c(C)cc(-c3cnc(C)nc3)cc12` [Compound 144, (1R,3S,5R)-2-(2-(3-acetyl-7-methyl-5-(2-methylpyrimidin-5-yl)-1H-indol-1-yl)acetyl)-N-(6-bromo-5-fluoro-3-methylpyridin-2-yl)-5-methyl-2-azabicyclo[3.1.0]hexane-3-carboxamide] yielded an IC50 of less than 1 µM. For `CC(=O)c1nn(CC(=O)N2[C@H](C(=O)NCCC3(C)OCCO3)C[C@@]3(C)C[C@@H]23)c2c(C)cc(-c3cnc(C)nc3)cc12` [Compound 145, (1R,3S,5R)-2-{2-[3-acetyl-7-methyl-5-(2-methylpyrimidin-5-yl)indazol-1-yl]acetyl}-5-methyl-N-[2-(2-methyl-1,3-dioxolan-2-yl)ethyl]-2-azabicyclo[3.1.0]hexane-3-carboxamide], the IC50 was less than 1 µM. `CC(=O)c1nn(CC(=O)N2[C@H](C(=O)N[C@H](CO)Cc3ccccc3)C[C@@]3(C)C[C@@H]23)c2c(C)cc(-c3cnc(C)nc3)cc12` [Compound 146, (1R,3S,5R)-2-{2-[3-acetyl-7-methyl-5-(2-methylpyrimidin-5-yl)indazol-1-yl]acetyl}-N-[(2S)-1-hydroxy-3-phenylpropan-2-yl]-5-methyl-2-azabicyclo[3.1.0]hexane-3-carboxamide] showed an IC50 of less than 1 µM. Work on `CC(=O)c1nn(CC(=O)N2[C@H](C(=O)NC(C)Cc3ccc(O)cc3)C[C@@]3(C)C[C@@H]23)c2c(C)cc(-c3cnc(C)nc3)cc12` (stereo partly drawn) [Compound 147, (1R,3S,5R)-2-{2-[3-acetyl-7-methyl-5-(2-methylpyrimidin-5-yl)indazol-1-yl]acetyl}-N-[1-(4-hydroxyphenyl)propan-2-yl]-5-methyl-2-azabicyclo[3.1.0]hexane-3-carboxamide] yielded an IC50 of less than 1 µM. `CC(=O)c1nn(CC(=O)N2[C@H](C(=O)N[C@@H]3CCCCC3(F)F)C[C@@]3(C)C[C@@H]23)c2c(C)cc(-c3cnc(C)nc3)cc12` [Compound 148, (1R,3S,5R)-2-{2-[3-acetyl-7-methyl-5-(2-methylpyrimidin-5-yl)indazol-1-yl]acetyl}-N-[(1R)-2,2-difluorocyclohexyl]-5-methyl-2-azabicyclo[3.1.0]hexane-3-carboxamide] was tested, and the IC50 was less than 1 µM.
